We go through two compounds from US20200129473A1, “USE OF ERIBULIN AND CYCLIN DEPENDENT KINASE INHIBITORS IN THE TREATMENT OF CANCER” (EISAI R&D MANAGEMENT CO., LTD., priority 2017, published 2020).

Molecules are shown by their SMILES. Like-named read-outs stand apart in the source and are kept apart here.

Test [1] relates to MDA-MB-415 human mammary gland/breast cancer cells. Description: Cell Titer-Glo growth inhibition, MDA-MB-415. The class given is cell-based. On the technique in general: Cellular ATP, detected with luciferase, serves as a proxy for viable cell number.
Test [2] concerns MDA-MB-175-VII human breast cancer cells. The experiment in a line: Cell Titer-Glo growth inhibition, MDA-MB-175VII. The class given is cell-based.
For test [3], the system named is MCF-7 human breast cancer cells. The experiment in a line: Cell Titer-Glo growth inhibition, MCF-7. The class given is cell-based.
Test [4] has as its system T-47D human breast cancer cells. Description: Cell Titer-Glo growth inhibition, T-47D. The class given is cell-based. As to conditions: T47D.
Test [5] relates to HCC1806 human breast cancer cells. Description: Cell Titer-Glo growth inhibition, HCC1806. The class given is cell-based.
The subject of test [6] is MDA-MB-134-VI human breast cancer cells. The experiment in a line: Cell Titer-Glo growth inhibition, MDA-MB-134VI. The class given is cell-based.
The subject of test [7] is HCC70 human breast cancer cells. The experiment in a line: Cell Titer-Glo growth inhibition, HCC70. The class given is cell-based.
In test [8] the test system is Hs578t human breast cancer cells. Description: Cell Titer-Glo growth inhibition, Hs578t. The class given is cell-based. Particulars: Hs-578T.
Test [9] relates to BT-549 human breast cancer cells. The experiment in a line: Cell Titer-Glo growth inhibition, BT-549. The class given is cell-based.
Test [10] has as its system ZR-75-1 human breast cancer cells. The experiment in a line: Cell Titer-Glo growth inhibition, ZR-75-1. The class given is cell-based.
Test [11] concerns MDA-MB-231 human breast cancer cells. The experiment in a line: Cell Titer-Glo growth inhibition, MDA-MB-231. The class given is cell-based.
For test [12], the system named is MDA-MB-436 human adenocarcinoma derived cancer cells. Description: Cell Titer-Glo growth inhibition, MDA-MB-436. The class given is cell-based.
The test system of test [13] is panel of 12 human breast cancer cell lines. The experiment in a line: Cell Titer-Glo growth inhibition, statements for the whole panel.
Method: MCF-7 human breast cancer cells were cultured in RPMI 1640 medium supplemented with 10% fetal bovine serum (FBS), 2 mM glutamine, 10 mM 4-(2-hydroxyethyl)-1-piperazineethanesulfonic acid (HEPES), 0.075% sodium bicarbonate, 100 units/mL sodium penicillin G, 100 μg/mL streptomycin sulfate and 25 μg/mL gentamicin. T-47D human breast cancer cells were cultured in RPMI 1640 medium supplemented with 10% FBS, 4.5 g/L glucose, 2 mM glutamine, 10 mM HEPES, 0.2 units/mL Insulin, 1 mM sodium pyruvate, 100 units/mL sodium penicillin G, 100 μg/mL streptomycin sulfate and 25 μg/mL gentamicin. ZR-75-1 human breast cancer cells were cultured in RPMI 1640 medium supplemented with 10% FBS, 4.5 g/L glucose, 2 mM glutamine, 10 mM HEPES, 1 mM sodium pyruvate, 100 units/mL sodium penicillin G, 100 μg/mL streptomycin sulfate and 25 μg/mL gentamicin. MDA-MB-134-VI human breast cancer cells were cultured in Leibovitz's L-15 medium supplemented with 20% FBS, 2 mM glutamine, 100 units/mL sodium penicillin G, 100 μg/mL streptomycin sulfate and 25 μg/mL gentamicin. MDA-MB-175-VII human breast cancer cells were cultured in Leibovitz's L-15 medium supplemented with 10% FBS, 2 mM glutamine, 10 mM HEPES, 100 units/mL sodium penicillin G, 100 μg/mL streptomycin sulfate and 25 μg/mL gentamicin. […]
The subject of test [14] is OD-BRE-0745, an ER+, PR+, Her2− luminal B infiltrating ductal adenocarcinoma (patient-derived breast tumor). The experiment in a line: Antitumor activity in OD-BRE-0745 PDX model. Particulars: 150 mg/kg palbociclib, contribution of eribulin masked (FIGS. 10 and 12). The class given is in vivo, Swiss nude mice. Here is the method: A statistical test (analysis of variance) was performed to test for homogeneity between groups.

Where [15] appears, read: 72 h, read-out: Mean IC50, single agent Eribulin.

`C=C1C[C@@H]2CC[C@@]34C[C@H]5O[C@H]6[C@@H](O3)[C@H]3O[C@H](CC[C@@H]3O[C@H]6[C@H]5O4)CC(=O)C[C@@H]3[C@@H](OC)[C@@H](C[C@H](O)CN)O[C@H]3C[C@H]3O[C@@H](CC[C@@H]1O2)C[C@@H](C)C3=C` [Eribulin]: the IC50 – broadly, the concentration at which inhibition is half-maximal – in [1] (MDA-MB-415, 72 h, read-out: Mean IC50, single agent Eribulin) is 0.403 nM; in test [2] (Homo sapiens, MDA-MB-175-VII, 72 h, 72 h drug exposure, read-out: Mean IC50, single agent Eribulin), 0.12 nM; in test [2] (Homo sapiens, MDA-MB-175-VII, eribulin 3.8 pM to 1 μM, constant 10 μM palbociclib, read-out: Mean IC50 of eribulin dose response with constant 10 μM Palbociclib), 92.9 nM; in test [2] (eribulin 3.8 pM to 1 μM, constant 10 μM palbociclib, listed as Eribufin, read-out: Mean IC50 of eribulin dose response with constant 10 μM Palbociclib), 92.2 nM; in [3] (MCF7, 72 h, read-out: Mean IC50, single agent Eribulin), 0.253 nM; in [3] (MCF7, read-out: Mean IC50 of eribulin dose response with constant 1 μM Palbociclib) it was 0.598 nM. The IC50 was 0.188 nM in [4] (setting [15]); 0.142 nM in test [5] (HCC1806, 72 h, read-out: Mean IC50, single agent Eribulin); 0.273 nM in test [5] (HCC1806, read-out: Mean IC50 of eribulin dose response with constant 1 μM Palbociclib); 0.491 nM in test [6] (MDA-MB-134-VI, 72 h, read-out: Mean IC50, single agent Eribulin); 21 nM in test [6] (MDA-MB-134-VI, read-out: Mean IC50 of eribulin dose response with constant 1 μM Palbociclib); 0.454 nM in [7] (HCC70, 72 h, read-out: Mean IC50, single agent Eribulin). Besides, the IC50 worked out at 0.377 nM in test [7] (HCC70, read-out: Mean IC50 of eribulin dose response with constant 1 μM Palbociclib); 21.5 nM in test [7] (HCC70, read-out: Mean IC50 of eribulin dose response with constant 10 μM Palbociclib); 0.354 nM in test [8] (setting [15]); 14.6 nM in test [8] (read-out: Mean IC50 of eribulin dose response with constant 1 μM Palbociclib); 0.797 nM in test [8] (read-out: Mean IC50 of eribulin dose response with constant 10 μM Palbociclib); 0.289 nM in [9] (BT-549, 72 h, read-out: Mean IC50, single agent Eribulin). Further, the IC50 was 0.374 nM in test [9] (BT-549, read-out: Mean IC50 of eribulin dose response with constant 1 μM Palbociclib); 0.849 nM in [9] (BT-549, read-out: Mean IC50 of eribulin dose response with constant 10 μM Palbociclib); over 1000 nM in test [10] (ZR-75-1, 72 h, read-out: Mean IC50, single agent Eribulin); 0.149 nM in test [11] (MDA-MB-231, 72 h, read-out: Mean IC50, single agent Eribulin); 1.45 nM in [11] (MDA-MB-231, read-out: Mean IC50 of eribulin dose response with constant 1 μM Palbociclib); 0.86 nM in test [12] (MDA-MB-436, 72 h, read-out: Mean IC50, single agent Eribulin). The IC50 in test [12] (MDA-MB-436, read-out: Mean IC50 of eribulin dose response with constant 1 μM Palbociclib) is 2.02 nM; in test [12] (MDA-MB-436, read-out: Mean IC50 of eribulin dose response with constant 10 μM Palbociclib), 6.25 nM; in [13] (Homo sapiens, read-out: IC50, single agent, overall statement), under 1 nM. In test [13] (all cell lines, constant dose of 10 μM or 1 μM of palbociclib), the “Potentiation of eribulin growth inhibition by palbociclib” value is given as “No potentiation effect”.
Turning to `CC(=O)c1c(C)c2cnc(Nc3ccc(N4CCNCC4)cn3)nc2n(C2CCCC2)c1=O` [Palbociclib, 6-acetyl-8-cyclopentyl-5-methyl-2-[(5-piperazin-1-ylpyridin-2-yl)amino]pyrido[2,3-d]pyrimidin-7-one], the IC50 in test [1] (MDA-MB-415, 72 h drug exposure, read-out: Mean IC50, single agent Palbociclib) is 1630 nM; in test [3] (MCF7, MCF-7, 72 h drug exposure, read-out: Mean IC50, single agent Palbociclib), over 10000 nM; in test [4] (T-47D, 72 h drug exposure, read-out: Mean IC50, single agent Palbociclib), over 10000 nM; in test [5] (HCC1806, 72 h drug exposure, read-out: Mean IC50, single agent Palbociclib) it was over 10000 nM; in test [6] (MDA-MB-134VI, 72 h drug exposure, read-out: Mean IC50, single agent Palbociclib), 2440 nM; in test [7] (HCC70, 72 h drug exposure, read-out: Mean IC50, single agent Palbociclib) it was over 10000 nM. In addition, the concentration for half-maximal inhibition (IC50) in test [8] (Hs578t, 72 h drug exposure, read-out: Mean IC50, single agent Palbociclib) was over 10000 nM; in test [9] (BT-549, 72 h drug exposure, read-out: Mean IC50, single agent Palbociclib), over 10000 nM; in test [10] (ZR-75-1, 72 h drug exposure, read-out: Mean IC50, single agent Palbociclib), over 10000 nM; in test [11] (MDA-MB-231, 72 h drug exposure, read-out: Mean IC50, single agent Palbociclib) it was 392 nM; in test [12] (MDA-MB-436, 72 h drug exposure, read-out: Mean IC50, single agent Palbociclib), 2990 nM. In test [14], the “Tumor response at the higher amount of palbociclib” value is “overwhelmed the response”.
